In PubChem BioAssay (NCI):
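A five-concentration, 48-hour dose response in 96-well plates underlies each endpoint, interpolated linearly between surrounding concentrations. At the GI50, growth is halved. TGI: total growth inhibition.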

Columns and labels:
Test in all cases: growth of human tumour cells (NCI), 48 h
[1] = system: HCT-15 colon
[2] = system: 786-0 renal
[3] = system: SW-620 colon
[4] = system: OVCAR-3 ovarian
[5] = system: SK-MEL-5 melanoma
[6] = system: HL-60(TB) leukemia
[7] = system: SK-MEL-28 melanoma
[8] = system: IGROV1 ovarian
[9] = system: TK-10 renal
[10] = system: SNB-19 CNS
[11] = system: U251 CNS
[12] = system: SF-268 CNS
[13] = system: NCI-H522 lung
[14] = system: RXF 393 renal
[15] = system: MDA-MB-435

SMILES | TGI [1] [µM] | TGI [2] [µM] | TGI [3] [µM] | TGI [4] [µM] | TGI [5] [µM] | TGI [6] [µM] | TGI [7] [µM] | TGI [8] [µM] | TGI [9] [µM] | TGI [10] [µM] | TGI [11] [µM] | TGI [12] [µM] | GI50 [13] [µM] | TGI [13] [µM] | GI50 [9] [µM] | GI50 [10] [µM] | GI50 [11] [µM] | TGI [14] [µM] | TGI [15] [µM]
CCCCC1(C)C=C/C(=C2/C(=O)O/C(=C\C(=O)O)C2=O)O1 (centres undefined) | > 100 | > 100 | > 100 | > 100 | > 100 | > 100 | > 100 | > 100 | > 100 | > 100 | > 100 |  |  |  |  |  |  |  | 
C=C1CCC2[C@@H](CCC3[C@]2(C)CCC[C@]3(C)C(=O)OC)C1CC=O (some centres undefined) | 43.6 | 33.1 | 35 | 27.7 | 33.9 | 40.1 | 30.7 | 38.6 | 26.6 | 33.1 | 33.5 | 35.1 | 16.3 | 31.8 | 13.2 | 18.2 | 17.8 |  | 
COC(=O)[C@@]1(C(C)CC(=O)O)CCCCC1=O (some centres undefined) | > 100 | > 100 |  | > 100 | > 100 | > 100 | > 100 | > 100 | > 100 | > 100 | > 100 | > 100 |  | > 100 |  |  |  | > 100 | 
C/C=C/C#CC#C/C=C/C=C/C(O)CCO (centres undefined) | > 23.1 | > 23.1 | > 23.1 | > 23.1 | > 23.1 | > 23.1 | > 23.1 | > 23.1 | > 23.1 | > 23.1 | > 23.1 | > 23.1 |  | > 23.1 |  |  |  | > 23.1 | 
O=C(c1nc2ccccc2[nH]c1=O)C(O)c1ccccc1 (centres undefined) | > 100 | > 100 | > 100 | > 100 | > 100 | > 100 | > 100 | > 100 | > 100 | > 100 | > 100 | > 100 |  | > 100 |  |  |  |  | 
COc1ccc(OC)c(CNc2ccc(C(=O)O)cc2)c1 | > 100 | > 100 | > 100 | > 100 | > 100 | > 100 | > 100 | > 100 | > 100 | > 100 | > 100 | > 100 |  | > 100 |  |  |  |  | > 100
COc1ccc(CCC2c3cc(OC)c(OC)cc3CCN2C)cc1OC (centres undefined) | > 100 | > 100 | > 100 | > 100 | > 100 | > 100 | > 100 | > 100 | > 100 | > 100 | > 100 | > 100 |  | > 100 |  |  |  | > 100 | 
CCN(CC)c1ccc2c(c1)Oc1ccc(N(CC)CC)cc1C21Oc2ccccc2-c2c1c1ccccc1n2CC (centres undefined) | > 100 | > 100 | > 100 | > 100 | 25.3 | 11 | > 100 |  |  | > 100 | > 100 | > 100 |  | 5.06 |  |  |  | > 100 | 
CC1(C)CC(=O)C(/C(=N/NC(=S)NN)C(=O)Nc2nc3ccc([N+](=O)[O-])cc3s2)C(=O)C1 | > 100 | > 100 | > 100 | > 100 | > 100 | > 100 | > 100 | > 100 | > 100 | > 100 | > 100 | > 100 |  | > 100 |  |  |  | > 100 | 
COc1ccc(/C=C2\CCC(C)(CN(C)C)C2=O)cc1OC (centres undefined) | > 100 | > 100 | > 100 | > 100 | > 100 |  | > 100 | > 100 | > 100 | > 100 | > 100 | > 100 |  | > 100 |  |  |  | > 100 | 
CCOC(=O)/C(C#N)=C(O)/C(=C\c1ccc(Br)cc1)NC(=O)c1ccccc1 | > 100 | > 100 | 51.7 | > 100 | > 100 | > 100 | > 100 | > 100 | > 100 | > 100 | > 100 | > 100 |  |  |  |  |  |  | 
Cc1ccc(NC(=O)c2cc(S(=O)(=O)Nc3n[nH]c(=O)[nH]3)c(SSc3cc(Cl)c(C(=O)Nc4ccc(C)cc4)cc3S(=O)(=O)Nc3n[nH]c(=O)[nH]3)cc2Cl)cc1 | > 100 | > 100 | > 100 | > 100 | > 100 | > 100 | > 100 | > 100 | > 100 | > 100 | > 100 | > 100 |  | > 100 |  |  |  |  | > 100
O=C(CCC1C(=O)NC(=S)NC1=O)c1ccc2ccccc2c1 | > 100 | > 100 | > 100 | > 100 | > 100 | > 100 | > 100 | > 100 | > 100 | > 100 | > 100 | > 100 |  | 31.1 |  |  |  | > 100 | 
CN(C)C(=NCc1ccccc1)NC#N | > 100 | > 100 | > 100 | > 100 | > 100 |  | > 100 | > 100 | > 100 | > 100 | > 100 | > 100 |  | > 100 |  |  |  |  | 
O=C1Nc2ccccc2N=CC1NC(=O)C(c1ccccc1)c1ccccc1 (centres undefined) | > 100 | > 100 | > 100 | > 100 | > 100 | > 100 | > 100 | > 100 | > 100 | > 100 | > 100 | > 100 |  | > 100 |  |  |  | > 100 | 
CC(=O)C1=CN=C2C(=O)N(c3ccccc3)N(C)C12C (centres undefined) | > 100 | > 100 | > 100 | > 100 | > 100 | > 100 |  | > 100 | > 100 | > 100 | > 100 |  |  | > 100 |  |  |  | > 100 | > 100
O=c1[nH]c(=S)nc2nc3c4ccc[nH]c4c4ccccc4c3nc12 | > 100 | > 100 | > 100 | > 100 | > 100 | 66.1 | > 100 | > 100 | > 100 | > 100 | > 100 | > 100 |  | > 100 |  |  |  | > 100 | > 100
CC1(c2ccccc2Cl)C(C#N)C(=O)NC(=O)C1C#N (centres undefined) | > 100 | > 100 | > 100 | 46.7 | 74.2 | 48.5 | > 100 | > 100 | > 100 | 92.8 |  | > 100 |  | 54 |  |  |  | > 100 | 
NC(=O)C(=O)C1CCC2=C(Sc3ccccc3N2)C1=O (centres undefined) | > 100 | > 100 | > 100 | > 100 | > 100 | > 100 | > 100 | > 100 | > 100 | > 100 | > 100 | > 100 |  | > 100 |  |  |  | > 100 | 
CCOP1(=O)C=C(C)C(Cl)=C(C)C1 (centres undefined) | 73.7 | 83 | 53.5 | > 100 | > 100 | 53.9 | 56.7 | > 100 | 96.7 | > 100 | 63.2 | > 100 |  | 27.8 |  |  |  | 77.2 | 
NS(=O)(=O)c1nnc(NS(=O)(=O)C(F)(F)F)s1 | > 100 | > 100 | > 100 | > 100 |  | > 100 | > 100 |  | > 100 | > 100 | > 100 | > 100 |  | > 100 |  |  |  | > 100 | > 100
Cc1ccccc1NC(=O)C(=O)C(C#N)c1ccccc1C (centres undefined) | > 100 | > 100 | 36.5 | > 100 | > 100 | > 100 | > 100 | > 100 | > 100 | > 100 | > 100 | > 100 |  | > 100 |  |  |  | > 100 | 
C/C(=C\CBr)CCC(Br)C(C)(C)Cl (centres undefined) | > 100 | > 100 | > 100 |  | > 100 |  | > 100 | > 100 | > 100 |  | > 100 | > 100 |  | > 100 |  |  |  | > 100 | 
Nc1c([N+](=O)[O-])nc(Cl)c2nncn12 | 42.4 | > 100 | > 100 | > 100 | > 100 | > 100 | > 100 | > 100 | > 100 | > 100 | > 100 | > 100 |  | > 100 |  |  |  | > 100 | 
NNC(=O)c1c(-c2cccnc2)cnc2ccccc12 | > 100 | > 100 | > 100 | > 100 | > 100 | > 100 | > 100 | > 100 | > 100 | > 100 | > 100 | > 100 |  | > 100 |  |  |  | > 100 | 
CC12CCC(=O)N1c1ccc([N+](=O)[O-])cc1N2 (centres undefined) | > 100 | > 100 | > 100 | > 100 | > 100 | > 100 | > 100 | > 100 |  | > 100 | > 100 | > 100 |  | > 100 |  |  |  | > 100 | 
